The source of these data is US8552013B2, “Heterocyclic compounds based on N6-substituted adenine, methods of their preparation, their use for preparation of drugs, cosmetic preparations and growth regulators, pharmaceutical preparations, cosmetic preparations and growth regulators containing these compounds” (USTAV Experimentalni Botaniky Akademie Ved Ceske Republiky, priority 2001, dated 2013).

Where two headings read alike, the source gives them in different places.

Assay [1] concerns K-562. The assay is described as follows: Calcein AM cytotoxicity, K-562. The assay is classed as cell-based. As to conditions: Homo sapiens, K562, 72 h, read-out: IC 50, K-562. An excerpt:
(§1) One of the parameters used, as the basis for cytotoxicity assays, is the metabolic activity of viable cells. For example, a microtiter assay, which uses the Calcein AM, is now widely used to quantitate cell proliferation and cytotoxicity. For instance, this assay is used in drug screening programs and in chemosensitivity testing. Because only metabolically active cells cleave Calcein AM, these assays detect viable cells exclusively. The quantity of reduced Calcein AM corresponds to the number of vital cells in the culture.
(§2) The cells were maintained in Nunc/Corning 80 cm^2 plastic tissue culture flasks and cultured in cell culture medium (DMEM with 5 g/l glucose, 2 mM glutamine, 100 U/ml penicillin, 100 μg/ml streptomycin, 10% fetal calf serum and sodium bicarbonate).
(§3) The cell suspensions that were prepared and diluted according to the particular cell type and the expected target cell density (2.500-30.000 cells per well based on cell growth characteristics) were added by pipette (80 μl) into 96/well microtiter plates. Inoculates were allowed a pre-incubation period of 24 hours at 37° C. and 5% CO2 for stabilisation. Four-fold dilutions of the intended test concentration were added at time zero in 20 μl aliquots to the microtiter plate wells. Usually, test compound was evaluated at six 4-fold dilutions. […] All drug concentrations were examined in duplicates. Incubations of cells with the test compounds lasted for 72 hours at 37° C., in 5% CO2 atmosphere and 100% humidity. At the end of incubation period, the cells were assayed by using the Calcein AM. Ten microliters of the stock solution were pipetted into each well and incubated further for 1 hours. Fluorescence (FD) was measured with the Labsystem FIA Reader Fluoroscan Ascent (UK).

For assay [2], the system named is promyelocytic HL-60 leukemia. Kind of assay: Calcein AM cytotoxicity, HL60. It counts as cell-based, human. As to conditions: Homo sapiens, read-out: IC 50, HL60.
Excerpt: as §1, §2, §3

The test system of assay [3] is breast carcinoma cell line MCF-7. The assay is described as follows: Calcein AM cytotoxicity, MCF7. Particulars: Homo sapiens, read-out: IC 50, MCF7. It counts as cell-based, human.
Excerpt: as §1, §2, §3

In assay [4] the test system is tobacco callus Nicotiana tabacum L. cv. Wisconsin 38. The assay is described as follows: Cytokinin-dependent tobacco callus growth. The assay is classed as cell-based. Particulars: fresh callus weight at the concentration with highest activity. Here is the method:
Cytokinin-dependent tobacco callus Nicotiana tabacum L. cv. Wisconsin 38 was maintained at 25° C. in darkness on modified Murashige-Skoog medium, containing per 1 liter: 4 μmol nicotinic acid, 2.4 μmol pyridoxine hydrochloride, 1.2 μmol thiamine, 26.6 μmol glycine, 1.37 μmol glutamine, 1.8 μmol myo-inositol, 30 g of sucrose, 8 g of agar, 5.37 μmol α-naphtylacetic acid (NAA) and 0.5 μmol benzylaminopurine (BAP). Subcultivation was carried out every three weeks. Fourteen days before the bioassay, the callus tissue was transferred to the media without 6-benzylaminopurine (BAP). Biological activity was determined from the increase in fresh callus weight after four weeks of cultivation. Five replicates were prepared for each cytokinin concentration and the entire test was repeated twice. From the obtained data, the concentration with highest activity was selected for each compound tested. Relative activity of the compound at this concentration was calculated (Tab. 6). The activity obtained for 10^−4 M 6-benzylaminopurine (BAP) was postulated as 100%. The cytokinins to be tested were dissolved in dimethylsulfoxide (DMSO) and the solution brought up to 10^−3M with distilled water. This stock was further diluted in the respective media used for the biotest to concentrations ranging from 10^−8M to 10^−4M.

The test system of assay [5] is Triticum aestivum cv. Hereward leaf tips. The assay is described as follows: Retention of chlorophyll in excised wheat leaf tips. The assay is classed as in vivo. As to conditions: chlorophyll retention at the concentration with highest activity. Here is the method:
Seeds of winter wheat, Triticum aestivum cv. Hereward, were washed under running water for 24 hours and then sown on vermiculite soaked with Knop's solution. They were placed in the grown chamber at 25° C. with a 16/8 h light period at 50 μmol.m^−2.s^−1. After 7 days, the first leaf was fully developed and the second leaf had started to grow. A tip section of the first leaf, approximately 35 mm long, was removed from 5 seedlings and trimmed slightly to a combined weight of 100 mg. The basal ends of the five leaf tips were placed in the wells of a microtiter polystyrene plate containing 150 μl of a cytokinin solution each. The entire plate was inserted into a plastic box lined with paper tissues soaked in distilled water to prevent leaf sections from drying out. After a 96 h incubation in the dark at 25° C., the leaves were removed and chlorophyll extracted by heating at 80° C. for 10 min in 5 ml of 80% ethanol (v/v). The sample volume was then restored to 5 ml by the addition of 80% ethanol (v/v). The absorbency of the extract was recorded at 665 nm. In addition, chlorophyll extracts from fresh leaves and leaf tips incubated in deionised water were measured. From the obtained data, the concentration with highest activity was selected for each compound tested. Relative activity of the compound at this concentration was calculated (Tab. 6). The activity obtained for 10^−4 M 6-benzylaminopurine (BAP) was postulated as 100%. The values shown are means of five replicates and the whole experiment was repeated twice. The cytokinins to be tested were dissolved in dimethylsulfoxide (DMSO) and the solution brought up to 10^−3M with distilled water. This stock was further diluted in distilled water to concentrations ranging from 10^−8M to 10^−4M.

Assay [6] has as its system Amaranthus caudatus cotyledon/hypocotyl explants. The assay is described as follows: Amaranthus bioassay, betacyanin content. The assay is classed as in vivo. As to conditions: betacyanin content at the concentration with highest activity. Here is the method: Standard Amaranthus bioassay was performed with several modifications. The seeds of Amaranthus caudatus var. atropurpurea were surface-sterilised in 10% N-chlorobenzenesulfonamide (w/v) for 10 min and washed 5 times in deionized water. They were placed in 14 cm Petri dishes containing paper tissues saturated with deionized water. After 72 h of cultivation at 25° C. in darkness, the roots of the seedlings were cut off. The explants, consisting of two cotyledons and hypocotyls, were placed in 5 cm Petri dishes on two layers of filter paper soaked in 1 ml of incubation medium containing 10 μmol NA2HPO4-KH2PO4, pH 6.8, 5 μmol tyrosine and the cytokinin to be tested. There were 20 explants per dish. The procedure was carried out under a green safe light in a darkroom. After a 48 h of incubation at 25° C. in darkness, betacyanin was extracted by freezing the explants in 4 ml […] acetic acid. The concentration of betacyanin was determined by comparing the absorbance at 537 nm and 620 nm as follows: ΔA=[…] nm-A620 nm. From the obtained data, the concentration with highest activity was selected for each compound tested. Relative activity of the compound at this concentration was calculated (Tab. 6). […] The values shown in table 8 are means of five replicates and the entire test was repeated twice. The cytokinins to be tested were dissolved in dimethylsulfoxide (DMSO) and the solution brought up to 10^-3M with distilled water. This stock was further diluted in the respective media used for the biotest to concentrations ranging from 10^-8M to 10^-4M.

Assay [7] has as its system T-lymphoblastic leukemia cell line CEM. The assay is described as follows: Calcein AM cytotoxicity, CEM. The assay is classed as cell-based, human.
Excerpt: as §1, §2, §3

Take `Fc1ccc(CNc2ncnc3nc[nH]c23)c(F)c1F` [6-(2,3,4-trifluorobenzylamino)purine]: the IC50 in assay [1] is above 167 µM; in assay [2] (HL-60, 72 h), above 167 µM; in assay [3] (MCF7, 72 h), above 167 µM. Further, the “Activity (%) [10^−4 mol · l^−1 BAP = 100%]” value in assay [4] is listed as 76 (±4) %; in assay [5], 131 (±22) %. Besides, the “activity (%) [10^−5 mol · l^−1 BAP = 100%]” value in assay [6] was 94 (±3) %.
Take `Fc1ccc(CNc2ncnc3nc[nH]c23)c(F)c1` [6-(2,4-difluorobenzylamino)purine]: the IC50 is above 167 µM in assay [1]; 146 µM in assay [7] (72 hours, listed as 2,4diFBAP); 140 µM in assay [7] (Homo sapiens, 72 h); above 167 µM in assay [2] (HL-60, 72 h); above 167 µM in assay [3] (MCF7, 72 h). The “Activity (%) [10^−4 mol · l^−1 BAP = 100%]” value is 95 (±1) % in assay [4] and 139 (±2) % in assay [5]. Moreover, the “activity (%) [10^−5 mol · l^−1 BAP = 100%]” value in assay [6] is given as 88 (±7) %.
`COc1ccc(CNc2ncnc3nc[nH]c23)c(OC)c1` [6-(2,4-dimethoxybenzylamino)purine]: the “Activity (%) [10^−4 mol · l^−1 BAP = 100%]” value in assay [4] is listed as 21 (±5) %; in assay [5] it was 26 (±11) %. Further, the “activity (%) [10^−5 mol · l^−1 BAP = 100%]” value in assay [6] is listed as 12 (±2) %.
The like results for `Brc1ccccc1CNc1ncnc2nc[nH]c12` [6-(2-bromobenzylamino)purine] were, in that order, 102 (±5) %, 52 (±14) % and 94 (±6) %.
The like results for `COc1cc(CNc2ncnc3nc[nH]c23)cc(OC)c1OC` [6-(3,4,5-trimethoxybenzylamino)purine] were, in that order, 19 (±3) %, 25 (±2) % and 2 (±2) %.
Turning to `Clc1ccc(CNc2ncnc3nc[nH]c23)cc1Cl` [6-(3,4-dichlorobenzylamino)purine], the “Activity (%) [10^−4 mol · l^−1 BAP = 100%]” value in assay [4] is 45 (±7) %; in assay [5], 117 (±22) %. In addition, the “activity (%) [10^−5 mol · l^−1 BAP = 100%]” value in assay [6] is 63 (±10) %.
`Fc1cc(F)cc(CNc2ncnc3nc[nH]c23)c1` [6-(3,5-difluorobenzylamino)purine]: the “Activity (%) [10^−4 mol · l^−1 BAP = 100%]” value in assay [4] is 97 (±3) %; in assay [5], 156 (±4) %. Besides, the “activity (%) [10^−5 mol · l^−1 BAP = 100%]” value in assay [6] is listed as 108 (±2) %.
In the case of `COc1cc(CNc2ncnc3nc[nH]c23)cc(OC)c1` [6-(3,5-dimethoxybenzylamino)purine], the IC50 in assay [1] is above 167 µM; in assay [7] (Homo sapiens, 72 h), above 167 µM; in assay [2] (HL-60, 72 h), above 167 µM; in assay [3] (MCF7, 72 h) it was above 167 µM. Moreover, in assay [5], the “Activity (%) [10^−4 mol · l^−1 BAP = 100%]” value is 16 (±1) %. Further, the “activity (%) [10^−5 mol · l^−1 BAP = 100%]” value in assay [6] is 1.5 (±1) %.
For `Brc1cccc(CNc2ncnc3nc[nH]c23)c1` [6-(3-bromobenzylamino)purine], the “Activity (%) [10^−4 mol · l^−1 BAP = 100%]” value in assay [4] was 85 (±11) %; in assay [5], 48 (±6) %. In assay [6], the “activity (%) [10^−5 mol · l^−1 BAP = 100%]” value was 71 (±5) %.
In the case of `O=[N+]([O-])c1cccc(CNc2ncnc3nc[nH]c23)c1` [6-(3-nitrobenzylamino)purine], the IC50 in assay [1] is above 167 µM; in assay [7] (Homo sapiens, 72 h) it was above 167 µM; in assay [2] (HL-60, 72 h), above 167 µM; in assay [3] (MCF7, 72 h), above 167 µM. The “Activity (%) [10^−4 mol · l^−1 BAP = 100%]” value in assay [5] was 60 (±15) %. Also, the “activity (%) [10^−5 mol · l^−1 BAP = 100%]” value in assay [6] was 66 (±7) %.
With `Brc1ccc(CNc2ncnc3nc[nH]c23)cc1` [6-(4-bromobenzylamino)purine], the “Activity (%) [10^−4 mol · l^−1 BAP = 100%]” value in assay [4] was 15 (±9) %; in assay [5], 30 (±15) %. In addition, the “activity (%) [10^−5 mol · l^−1 BAP = 100%]” value in assay [6] is on record as 17 (±7) %.
For `Nc1ncnc2nc[nH]c12` [Adenine], the IC50 in assay [1] is above 167 µM; in assay [7] (Homo sapiens, 72 h), above 167 µM; in assay [2] (HL-60, 72 h), above 167 µM; in assay [3] (MCF7, 72 h) it was above 167 µM.
As to `C/C(=C\CNc1ncnc2[nH]cnc12)CO` [Zeatin, reference compound], the IC50 is above 167 µM in assay [7] (Homo sapiens, 72 hours); above 167 µM in assay [2] (HL-60, 72 hours); above 167 µM in assay [3] (MCF7, 72 hours).
